The supplement of paper PMC11061612

Experiments:
Carboplatin = compound: C1CC(C1)(C(=O)[O-])C(=O)[O-].N.N.[Pt+2] [Carboplatin]; conditions: max 10 µM
In short: (§1)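 Cancer cell lines in 1536-well plates (7.5 μl DMEM/F12 or RPMI, 10% FBS) were held 24 hours at 37°C and 5% CO2 and then dosed for 72 hours at a final DMSO of typically 0.2%. Viability was taken from CellTiter-Glo 2.0 luminescence, scaled between blank-well and DMSO-well means. Curves were fitted as two-parameter logistic models with a non-linear mixed effects model, from which the single-agent IC50 was taken.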

AZD5363 = compound: C1CN(CCC1(C(=O)N[C@@H](CCO)C2=CC=C(C=C2)Cl)N)C3=NC=NC4=C3C=CN4 [AZD5363]; conditions: max 10 µM
In short: as §1

AZD1775 = compound: C=CCn1c(=O)c2cnc(Nc3ccc(N4CCN(C)CC4)cc3)nc2n1-c1cccc(C(C)(C)O)n1 [AZD1775]; conditions: max 3 µM
In short: as §1

Trametinib = compound: CC(=O)Nc1cccc(-n2c(=O)n(C3CC3)c(=O)c3c(Nc4ccc(I)cc4F)n(C)c(=O)c(C)c32)c1 [Trametinib]; conditions: max 1 µM
In short: as §1

Paclitaxel = compound: CC(=O)O[C@H]1C(=O)[C@@]2(C)[C@H]([C@H](OC(=O)c3ccccc3)[C@]3(O)C[C@H](OC(=O)[C@H](O)[C@@H](NC(=O)c4ccccc4)c4ccccc4)C(C)=C1C3(C)C)[C@]1(OC(C)=O)CO[C@@H]1C[C@@H]2O [Paclitaxel]; conditions: max 3 µM
In short: as §1

Palbociclib = compound: CC(=O)c1c(C)c2cnc(Nc3ccc(N4CCNCC4)cn3)nc2n(C2CCCC2)c1=O [Palbociclib]; conditions: max 10 µM
In short: as §1

AZD1390 = compound: CC(C)n1c(=O)n(C)c2cnc3cc(F)c(-c4ccc(OCCCN5CCCCC5)nc4)cc3c21 [AZD1390]; conditions: max 0.3 µM
In short: as §1

Venetoclax = compound: CC1(C)CCC(CN2CCN(c3ccc(C(=O)NS(=O)(=O)c4ccc(NCC5CCOCC5)c([N+](=O)[O-])c4)c(Oc4cnc5[nH]ccc5c4)c3)CC2)=C(c2ccc(Cl)cc2)C1 [Venetoclax]; conditions: max 1 µM
In short: as §1

Dasatinib = compound: CC1=C(C(=CC=C1)Cl)NC(=O)C2=CN=C(S2)NC3=CC(=NC(=N3)C)N4CCN(CC4)CCO [Dasatinib]; conditions: max 2 µM
In short: as §1

SG3199 = compound: CC1=CN2[C@@H](C1)C=NC3=CC(=C(C=C3C2=O)OC)OCCCCCOC4=C(C=C5C(=C4)N=C[C@@H]6CC(=CN6C5=O)C)OC [SG3199]; conditions: max 0.001 µM
In short: as §1

AZD2811 = compound: CCN(CCO)CCCOc1ccc2c(Nc3cc(CC(=O)Nc4cccc(F)c4)[nH]n3)ncnc2c1 [AZD2811]; conditions: max 1 µM
In short: as §1

SN-38 = compound: CCc1c2c(nc3ccc(O)cc13)-c1cc3c(c(=O)n1C2)COC(=O)[C@]3(O)CC [SN-38]; conditions: max 0.3 µM
In short: as §1

AZD0156 = compound: CN(C)CCCOc1ccc(-c2ccc3ncc4c(c3c2)n(C2CCOCC2)c(=O)n4C)cn1 [AZD0156]; conditions: max 3 µM
In short: as §1

AZD4320 = compound: CN(CC[C@H](CSC1=CC=CC=C1)NC2=C(C=C(C=C2)S(=O)(=O)NC(=O)C3=CC=C(C=C3)N4CCC(CC4)[C@H](C5=CC=CC=C5C6=CC=C(C=C6)Cl)O)S(=O)(=O)C(F)(F)F)CCO [AZD4320]; conditions: max 1 µM
In short: as §1

Alisertib = compound: COc1cc(Nc2ncc3c(n2)-c2ccc(Cl)cc2C(c2c(F)cccc2OC)=NC3)ccc1C(=O)O [Alisertib]; conditions: max 10 µM
In short: as §1

Etoposide = compound: COc1cc([C@@H]2c3cc4c(cc3[C@@H](O[C@@H]3O[C@@H]5CO[C@@H](C)O[C@H]5[C@H](O)[C@H]3O)[C@H]3COC(=O)[C@H]23)OCO4)cc(OC)c1O [Etoposide]; conditions: max 10 µM
In short: as §1

Gefitinib = compound: COc1cc2ncnc(Nc3ccc(F)c(Cl)c3)c2cc1OCCCN1CCOCC1 [Gefitinib]; conditions: max 10 µM
In short: as §1

Prexasertib = compound: COc1cccc(OCCCN)c1-c1cc(Nc2cnc(C#N)cn2)n[nH]1 [Prexasertib]; conditions: max 1 µM
In short: as §1

Doxorubicin = compound: COc1cccc2c1C(=O)c1c(O)c3c(c(O)c1C2=O)C[C@@](O)(C(=O)CO)C[C@@H]3O[C@H]1C[C@H](N)[C@H](O)[C@H](C)O1 [Doxorubicin]; conditions: max 1 µM
In short: as §1

AZD5153 = compound: COc1nnc2ccc(N3CCC(c4ccc(OCCN5CCN(C)C(=O)[C@H]5C)cc4)CC3)nn12 [AZD5153]; conditions: max 1 µM
In short: as §1

Lapatinib = compound: CS(=O)(=O)CCNCc1ccc(-c2ccc3ncnc(Nc4ccc(OCc5cccc(F)c5)c(Cl)c4)c3c2)o1 [Lapatinib]; conditions: max 10 µM
In short: as §1

AZD8186 = compound: C[C@@H](Nc1cc(F)cc(F)c1)c1cc(C(=O)N(C)C)cc2c(=O)cc(N3CCOCC3)oc12 [AZD8186]; conditions: max 10 µM
In short: as §1

Crizotinib = compound: C[C@@H](Oc1cc(-c2cnn(C3CCNCC3)c2)cnc1N)c1c(Cl)ccc(F)c1Cl [Crizotinib]; conditions: max 10 µM
In short: as §1

Savolitinib = compound: C[C@@H](c1ccc2nccn2c1)n1nnc2ncc(-c3cnn(C)c3)nc21 [Savolitinib]; conditions: max 1 µM
In short: as §1

AZD6738 = compound: C[C@@H]1COCCN1C2=NC(=NC(=C2)C3(CC3)[S@](=N)(=O)C)C4=C5C=CNC5=NC=C4 [AZD6738]; conditions: max 10 µM
In short: as §1

AZD5991 = compound: Cc1c2c(nn1C)CSCc1cc(n(C)n1)CSc1cc(c3ccccc3c1)OCCCc1c(C(=O)O)n(C)c3c-2c(Cl)ccc13 [AZD5991]; conditions: max 1 µM
In short: as §1

AZD7648 = compound: Cc1cc2ncnn2cc1Nc1ncc2c(n1)n(C1CCOCC1)c(=O)n2C [AZD7648]; conditions: max 10 µM
In short: as §1

Taselisib = compound: Cc1nc(-c2cn3c(n2)-c2ccc(-c4cnn(C(C)(C)C(N)=O)c4)cc2OCC3)n(C(C)C)n1 [Taselisib]; conditions: max 10 µM
In short: as §1

Selumetinib = compound: Cn1cnc2c(F)c(Nc3ccc(Br)cc3Cl)c(C(=O)NOCCO)cc21 [Selumetinib]; conditions: max 10 µM
In short: as §1

SRA737 = compound: N#Cc1cnc(Nc2cc(NC[C@H]3CNCCO3)c(C(F)(F)F)cn2)cn1 [SRA737]; conditions: max 10 µM
In short: as §1

MK-2206 = compound: NC1(c2ccc(-c3nc4ccn5c(=O)[nH]nc5c4cc3-c3ccccc3)cc2)CCC1 [MK-2206]; conditions: max 10 µM
In short: as §1

Gemcitabine = compound: Nc1ccn([C@@H]2O[C@H](CO)[C@@H](O)C2(F)F)c(=O)n1 [Gemcitabine]; conditions: max 0.3 µM
In short: as §1

[1] = compound: O=C(Nc1ccc2[nH]nc(-c3ccncc3)c2c1)[C@@H]1CCN(CC(=O)N2CCN(c3ccc(-c4ncccn4)cc3)CC2)C1; conditions: max 5 µM
In short: as §1

Olaparib = compound: O=C(c1cc(Cc2n[nH]c(=O)c3ccccc23)ccc1F)N1CCN(C(=O)C2CC2)CC1 [Olaparib]; conditions: max 10 µM
In short: as §1

5-Fluorouracil = compound: O=c1[nH]cc(F)c(=O)[nH]1 [5-Fluorouracil]; conditions: max 20 µM
In short: as §1

Row | Cell Line | IC50, cell viability 72 h (Carboplatin) [nM] | IC50, cell viability 72 h (AZD5363) [nM] | IC50, cell viability 72 h (AZD1775) [nM] | IC50, cell viability 72 h (Trametinib) [nM] | IC50, cell viability 72 h (Paclitaxel) [nM] | IC50, cell viability 72 h (Palbociclib) [nM] | IC50, cell viability 72 h (AZD1390) [nM] | IC50, cell viability 72 h (Venetoclax) [nM] | IC50, cell viability 72 h (Dasatinib) [nM] | IC50, cell viability 72 h (SG3199) [nM] | IC50, cell viability 72 h (AZD2811) [nM] | IC50, cell viability 72 h (SN-38) [nM] | IC50, cell viability 72 h (AZD0156) [nM] | IC50, cell viability 72 h (AZD4320) [nM] | IC50, cell viability 72 h (Alisertib) [nM] | IC50, cell viability 72 h (Etoposide) [nM] | IC50, cell viability 72 h (Gefitinib) [nM] | IC50, cell viability 72 h (Prexasertib) [nM] | IC50, cell viability 72 h (Doxorubicin) [nM] | IC50, cell viability 72 h (AZD5153) [nM] | IC50, cell viability 72 h (Lapatinib) [nM] | IC50, cell viability 72 h (AZD8186) [nM] | IC50, cell viability 72 h (Crizotinib) [nM] | IC50, cell viability 72 h (Savolitinib) [nM] | IC50, cell viability 72 h (AZD6738) [nM] | IC50, cell viability 72 h (AZD5991) [nM] | IC50, cell viability 72 h (AZD7648) [nM] | IC50, cell viability 72 h (Taselisib) [nM] | IC50, cell viability 72 h (Selumetinib) [nM] | IC50, cell viability 72 h (SRA737) [nM] | IC50, cell viability 72 h (MK-2206) [nM] | IC50, cell viability 72 h (Gemcitabine) [nM] | IC50, cell viability 72 h [1] [nM] | IC50, cell viability 72 h (Olaparib) [nM] | IC50, cell viability 72 h (5-Fluorouracil) [nM]
1 | MDA-MB-436 (Breast Carcinoma) | > 10000 | > 10000 | > 3000 | > 1000 | > 3000 | > 10000 | > 300 | > 1000 | > 2000 | > 1 | > 1000 | 207 | > 3000 | > 1000 | > 10000 | > 10000 | > 10000 | > 1000 | > 1000 | > 1000 | > 10000 | > 10000 | > 10000 | > 1000 | > 10000 | > 1000 | > 10000 | > 10000 | > 10000 | > 10000 | > 10000 | > 300 | > 5000 | > 10000 | > 20000
2 | MHH-ES-1 (Ewing's Sarcoma) | > 10000 | > 10000 | 649 | > 1000 | 5.4 | > 10000 | > 300 | > 1000 | > 2000 | > 1 | 215 | 3.05 | > 3000 | > 1000 | 319 | 2700 | > 10000 | 212 | 425 | 614 | > 10000 | > 10000 | 3990 | > 1000 | > 10000 | > 1000 | > 10000 | 5810 | > 10000 | > 10000 | > 10000 | 15.9 | > 5000 | 4150 | > 20000
3 | NCI-H441 (Lung Adenocarcinoma) | > 10000 | > 10000 | > 3000 | > 1000 | 2240 | > 10000 | > 300 | > 1000 | > 2000 | > 1 | > 1000 | 112 | > 3000 | > 1000 | > 10000 | > 10000 | > 10000 | 666 | > 1000 | > 1000 | > 10000 | > 10000 | > 10000 | > 1000 | > 10000 | > 1000 | > 10000 | > 10000 | > 10000 | > 10000 | > 10000 | 299 | > 5000 | > 10000 | > 20000
4 | NCI-H1651 (Lung Adenocarcinoma) | > 10000 | > 10000 | 779 | > 1000 | 21.7 | > 10000 | > 300 | > 1000 | > 2000 | > 1 | > 1000 | 22.1 | > 3000 | > 1000 | > 10000 | 6010 | > 10000 | 83.1 | 788 | > 1000 | > 10000 | > 10000 | > 10000 | > 1000 | > 10000 | > 1000 | > 10000 | > 10000 | > 10000 | > 10000 | > 10000 | > 300 | > 5000 | > 10000 | > 20000
5 | NCI-H1703 (Squamous Cell Lung Carcinoma) | > 10000 | 6660 | 222 | > 1000 | 5.86 | 9730 | > 300 | > 1000 | 47.8 | > 1 | > 1000 | 36.7 | > 3000 | > 1000 | 6210 | 1640 | > 10000 | 8.59 | 142 | 400 | > 10000 | 4060 | 8010 | > 1000 | 917 | 393 | > 10000 | 625 | > 10000 | 1170 | 2830 | 4.23 | > 5000 | > 10000 | > 20000
